In the experiment the test system is porcine hair follicles. In words: Hair growth suppressing effect by organ culture method using porcine hair follicles. It is filed as cell-based, pig. To be noted: for activity at 3e-05 % / activity at 0.003 %: 120 h, day 5 after start of culture with sample-containing medium; for activity at 3e-05 %: concentration 0.00003%; for activity at 0.003 %: concentration 0.003%; for activity at 0.01 %: concentration 0.01%. The protocol:
The skin of a pork pig was cut into pieces of appropriate size, and excess fat was removed. For disinfection, the skin pieces were immersed in a Hibitane solution under sterile conditions for 10 to 20 minutes. The thus-disinfected skin pieces were washed several times with D-PBS.
Subsequently, hair follicles were isolated from the thus-treated skin pieces under a stereomicroscope by means of tweezers and a scalpel (FEATHER No. 10), and the hair follicles were placed on William's Medium E (Gibco cat. No. 12551-032) supplemented with penicillin/streptomycin (Gibco cat. No. 15140-122) solution by 10.
The isolated hair follicles were transferred to a 24-well culture plate (one follicle/well) together with the aforementioned culture medium (400 μL), and cultured in an incubator (37° C., 5% CO2) for two days.
Subsequently, compounds synthesized in Example 1 (compounds 2, 6, 7, and 9 to 13) were diluted with the aforementioned culture medium, to thereby prepare sample-containing media. Each of the thus-prepared sample-containing media was used for replacement. Similarly, N,N-dimethylglycine methyl ester (DMG) and 1,8-diaminooctane (1,8-DAO) were diluted with the aforementioned culture medium, to thereby prepare sample-containing media. Each of the thus-prepared sample-containing media was also used for replacement.
The medium for culture of hair follicles was replaced with each of the sample-containing media, and thereafter, replaced with a sample-containing medium every one or two days. At days five or six after the start of culture with the sample-containing medium, the elongation of hair follicles (i.e., elongation of hair) was measured and compared with that of the control in which medium was replaced with only the non-sample-containing medium. The elongation of hair follicles (i.e., elongation of hair) in the control medium was taken as 100%.
The sample concentration of each sample-containing medium was set within a range that the sample is completely dissolved in the medium, and at non-cytotoxic levels which cause no reduction of cell viability with 24-hour addition of the sample to epidermal cells.

Setting [1] is: Sus scrofa, read-out: Percent growth of hair follicles (control = 100%).
Setting [2] is: Sus scrofa, 144 h, day 6 after start of culture with sample-containing medium, read-out: Percent growth of hair follicles (control = 100%).

The results in this text go back to patent US8440717B2, “Hair growth regulating agent” (Kao Corporation, priority 2008, dated 2013).

As to `NCCCCCCCCN` [1,8-DAO, 1,8-diaminooctane, reference compound], where the note is “Sus scrofa, 144 h, day 6 after start of culture with sample-containing medium, concentration 0.03%, read-out: Percent growth of hair follicles (control = 100%)”, the activity at 0.03 % came out at 87.9%.

With `CCCCCCCCCCCCNC(=O)CN(C)C` [Compound 2, 2-Dimethylamino-N-Dodecyl-Acetamide], under setting [1], the activity at 3e-05 % is 108%.

For `CCNC(=O)CN(C)C` [Compound 6, 2-Dimethylamino-N-Ethyl-Acetamide], under setting [1], the activity at 0.003 % turned out to be 91.6%.

As to `CCCCCCCCCCCCNC(=O)C[N+](C)(C)C.[Cl-]` [Compound 7, Dodecylcarbamoylmethyltrimethylammonium Chloride], the activity at 3e-05 % under setting [1] was determined as 42.4%. In addition, where the note is “comparison across Tables 1 and 2, compound 7 at 0.000030”, the “suppressive effect on growth of hair follicles (i.e., hair growth), rank among tested compounds” value was “highest suppressive effect”.

Take `CN(C)CC(=O)NCCOCCOCCNC(=O)CN(C)C` [Compound 9, 2-Dimethylamino-N-(2-{2-[2-(2-Dimethylamino-Acetylamino)-Ethoxy]-Ethoxy}-Ethyl)-Acetamide]: the activity at 0.01 % under setting [2] came out at 62.4%.

As to `CN(C)CC(=O)NCCCCCCCCNC(=O)CN(C)C` [Compound 10, 2-Dimethylamino-N-[8-(2-Dimethylamino-Acetylamino)-Octyl]-Acetamide], the activity at 0.01 % under setting [2] is 54.7%.

Take `CN(C)CC(=O)NCCOCCOCCOCCNC(=O)CN(C)C` [Compound 11, 2-Dimethylamino-N-[2-(2-{2-[2-(2-Dimethylamino-Acetylamino)-Ethoxy]-Ethoxy}-Ethoxy)-Ethyl]-Acetamide]: the activity at 0.003 % under setting [1] amounted to 97%.

Consider `CN(C)CC(=O)NCCCCCCCCCCCCNC(=O)CN(C)C` [Compound 12, 2-Dimethylamino-N-[12-(2-Dimethylamino-Acetylamino)-Dodecyl]-Acetamide], for which the activity at 0.003 % under setting [1] came to 48.7%.

On to `CN(C)CC(=O)NCCCCNC(=O)CN(C)C` [Compound 13, 2-Dimethylamino-N-[4-(2-Dimethylamino-Acetamino)-Butyl]-Acetamide], for which the activity at 0.003 % under setting [1] is 79.1%.
